Calls of active or inactive are those of the source. No cut-off for these calls is given here.
Columns and labels:
Escherichia coli [1] = assay: Compound is evaluated for lambda-phage induction activity in Escherichia coli (dose at 12.5 ug/mL); type: functional
Escherichia coli [2] = assay: Compound is evaluated for lambda-phage induction activity in Escherichia coli (dose at 6.2 ug/mL); type: functional
Escherichia coli [3] = assay: Compound is evaluated for lambda-phage induction activity in Escherichia coli (dose at 50 ug/mL); type: functional
Escherichia coli [4] = assay: Compound is evaluated for lambda-phage induction activity in Escherichia coli (dose at 3.1 ug/mL); type: functional
Escherichia coli [5] = assay: Compound is evaluated for lambda-phage induction activity in Escherichia coli (dose at 25 ug/mL); type: functional
Escherichia coli [6] = assay: Compound is evaluated for lambda-phage induction activity in Escherichia coli (dose at 1.6 ug/mL); type: functional
Bacillus subtilis = assay: Compound was tested for its lambda-phage induction activity against Bacillus subtilis in a disk plate assay at concentration of dose of 0.8 ug/mL; Active; type: functional, organism-based
Escherichia coli [7] = assay: Compound is evaluated for lambda-phage induction activity in Escherichia coli (dose at 0.8 ug/mL); type: functional
Escherichia coli [8] = assay: Compound is evaluated for lambda-phage induction activity in Escherichia coli (dose at 6.2 ug/mL); Toxic to culture; type: functional
Escherichia coli [9] = assay: Compound is evaluated for lambda-phage induction activity in Escherichia coli (dose at 50 ug/mL); Toxic to culture; type: functional

Structure (SMILES)	Activity (Escherichia coli [1])	Activity (Escherichia coli [2])	Activity (Escherichia coli [3])	Activity (Escherichia coli [4])	Activity (Escherichia coli [5])	Activity (Escherichia coli [6])	Activity (Bacillus subtilis)	Activity (Escherichia coli [7])	Activity (Escherichia coli [8])	Activity (Escherichia coli [9])
CC[C@H]1CCc2c(O)c3c(c(O)c2[C@H]1C(=O)OC)C(=O)c1cccc(O)c1C3=O	1.2	1.3	2.4	1	1.8					
CC[C@]12O[C@H]1Cc1c(O)c3c(c(O)c1[C@H]2C(=O)OC)C(=O)c1cccc(O)c1C3=O	1.5	1.3	2.9	1.2	1.9					
COc1cccc2c1C(=O)c1c(O)c3c(c(O)c1C2=O)C[C@@](O)(C(C)=O)C[C@@H]3O[C@H]1C[C@H](N)[C@H](O)[C@H](C)O1 [DAUNORUBICIN]				11.9		5.3	Active	3.1	11.1	
CC[C@@]1(O)C[C@H](O)c2c(O)c3c(c(O)c2[C@H]1C(=O)OC)C(=O)c1cccc(O)c1C3=O	1.5				1.8					2.9
CC[C@@]12O[C@@H]1Cc1c(O)c3c(c(O)c1[C@H]2C(=O)OC)C(=O)c1cccc(O)c1C3=O	1.1	1.4	3	1.2	2					
CC(=O)[C@]1(O)Cc2c(O)c3c(c(O)c2[C@@H](O[C@H]2C[C@H](N)[C@H](O)[C@H](C)O2)C1)C(=O)c1c(O)cccc1C3=O [CARUBICIN]		7		6.2		3	Active	2.2		
CCC1=CCc2c(O)c3c(c(O)c2[C@H]1C(=O)OC)C(=O)c1cccc(O)c1C3=O	6	2.8	13.4		9.3					

— ChEMBL document CHEMBL1121563, “8-Hydroxyanthracyclinones from epsilon-rhodomycinone” (1980)
